target: MCH receptor (Homo sapiens, UniProt Q99705); test: Receptor binding assay with Radiolabelled MCH Ligand; set-up: expressed in transfected cells; host or cells: 293 cells (human kidney, ATCC), transient transfection; crude membranes; details: class by percent of control at 10^-7 M or IC50
Description: In addition to the methods described herein, another means for evaluating a test compound is by determining binding affinities to the MCH receptor. This type of assay generally requires a radiolabelled ligand to the MCH receptor. Absent the use of known ligands for the MCH receptor and radiolabels thereof, compounds of Formula (I) can be labelled with a radioisotope and used in an assay for evaluating the affinity of a test compound to the MCH receptor.
A radiolabelled MCH compound of Formula (I) can be used in a screening assay to identify/evaluate compounds. In general terms, a newly synthesized or identified compound (i.e., test compound) can be evaluated for its ability to reduce binding of the “radiolabelled compound of Formula (I)” to the MCH receptor. Accordingly, the ability to compete with the “radio-labelled compound of Formula (I)” or Radiolabelled MCH Ligand for the binding to the MCH receptor directly correlates to its binding affinity of the test compound to the MCH receptor.
293 cells (human kidney, ATCC), transiently transfected with 10 μg human MCH receptor and 60 μl Lipofectamine (per 15-cm dish), are grown in the dish for 24 hours (75% confluency) with a media change and removed with 10 mL/dish of Hepes-EDTA buffer (20 mM Hepes+10 mM EDTA, pH 7.4). The cells are then centrifuged in a Beckman Coulter centrifuge for 20 minutes, 17,000 rpm (JA-25.50 rotor). Subsequently, the pellet is resuspended in 20 mM Hepes+1 mM EDTA, pH 7.4 and homogenized with a 50-mL Dounce homogenizer and again centrifuged. After removing the supernatant, the pellets can be stored at −80° C., until used in binding assay. When used in the assay, membranes are thawed on ice for 20 minutes and then 10 mL of incubation buffer (20 mM Hepes, 1 mM MgCl2, 100 mM NaCl, pH 7.4) added. The membranes are then vortexed to resuspend the crude membrane pellet and homogenized with a Brinkmann PT-3100 Polytron homogenizer for 15 seconds at setting 6. The concentration of membrane protein is determined using the BRL Bradford protein assay.
For total binding, a total volume of 50 ul of appropriately diluted membranes (diluted in assay buffer containing 50 mM Tris HCl (pH 7.4), 1 mM MgCl2, and 1 mM EDTA; 5-50 ug protein) is added to 96-well polyproylene microtiter plates followed by addition of 100 μl of assay buffer and 50 μl of Radiolabelled MCH Ligand. For nonspecific binding, 50 μl of assay buffer is added instead of 100 μl and an additional 50 μl of 10 uM cold MCH is added before 50 μl of Radiolabelled MCH Ligand is added. Plates are then incubated at room temperature for 60-120 minutes. The binding reaction is terminated by filtering assay plates through a Microplate Devices GF/C Unifilter filtration plate with a Brandell 96-well plate harvester followed by washing with cold 50 mM Tris HCl, pH 7.4 containing 0.9% NaCl. Then, the bottom of the filtration plate are sealed, 50 ul of Optiphase Supermix is added to each well, the top of the plates are sealed, and plates are counted in a Trilux MicroBeta scintillation counter. For compound competition studies, instead of adding 100 μl of assay buffer, 100 μl of appropriately diluted test compound is added to appropriate wells followed by addition of 50 μl of Radiolabelled MCH Ligand.
The test compounds are initially assayed at 1 and 0.1 μM and then at a range of concentrations chosen such that the middle dose would cause about 50% inhibition of a Radiolabelled MCH Ligand binding (i.e., IC50). Specific binding in the absence of test compound (BO) is the difference of total binding (BT) minus non-specific binding (NSB) and similarly specific binding (in the presence of test compound) (B) is the difference of displacement binding (BD) minus non-specific binding (NSB). IC50 is determined from an inhibition response curve, logit-log plot of % B/BO vs. concentration of test compound.
Ki is calculated by the Cheng and Prustoff transformation: […]

Sequence of MCH receptor (Q99705 whole entry): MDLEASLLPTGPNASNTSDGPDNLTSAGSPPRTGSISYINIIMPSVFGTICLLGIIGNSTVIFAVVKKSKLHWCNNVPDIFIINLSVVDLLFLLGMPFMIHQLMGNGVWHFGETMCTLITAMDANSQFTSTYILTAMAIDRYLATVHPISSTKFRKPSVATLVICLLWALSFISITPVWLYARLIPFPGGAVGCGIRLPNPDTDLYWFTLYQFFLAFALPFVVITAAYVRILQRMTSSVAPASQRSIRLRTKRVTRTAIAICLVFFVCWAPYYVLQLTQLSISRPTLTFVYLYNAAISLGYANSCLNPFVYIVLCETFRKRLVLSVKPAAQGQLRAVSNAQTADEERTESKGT

**Q.** For Cc1nc(N[C@H]2CC[C@@H](NC(=O)/C=C/c3ccccc3)CC2)cc(N(C)C)n1 [compound 210], which class is on record?
**A.** 3 (Class 3: The value of percent of control at 10^−7 M was more than 60% or the value of IC50 was more than 200 nM.)

**Q.** Which class does the source give for Cc1nc(N[C@H]2CC[C@@H](NC(=O)C3CC3)CC2)cc(N(C)C)n1 [compound 211] here?
**A.** 3 (Class 3: The value of percent of control at 10^−7 M was more than 60% or the value of IC50 was more than 200 nM.)

**Q.** With Cc1nc(N[C@H]2CC[C@@H](NC(=O)C3CCCCC3)CC2)cc(N(C)C)n1 [compound 212] as the compound, how does the class read?
**A.** 3 (Class 3: The value of percent of control at 10^−7 M was more than 60% or the value of IC50 was more than 200 nM.)

**Q.** Which class does the source give for Cc1nc(N[C@H]2CC[C@@H](NC(=O)Cc3ccc(Cl)cc3)CC2)cc(N(C)C)n1 [compound 213] here?
**A.** 3 (Class 3: The value of percent of control at 10^−7 M was more than 60% or the value of IC50 was more than 200 nM.)

**Q.** Cc1nc(N[C@H]2CC[C@@H](NC(=O)C3(c4ccc(Cl)cc4)CCCC3)CC2)cc(N(C)C)n1 [compound 214] was tested. Which class did it give?
**A.** 1 (Class 1: The value of percent of control at 10^−7 M was less than 40% or the value of IC50 was less than 50 nM.)

**Q.** For Cc1nc(N[C@H]2CC[C@@H](NC(=O)c3c(-c4c(F)cccc4Cl)noc3C)CC2)cc(N(C)C)n1 [compound 215, 3-(2-chloro-6-fluorophenyl)-N-(cis-4-{[6-(dimethylamino)-2-methylpyrimidin-4-yl]amino}cyclohexyl)-5-methylisoxazole-4-carboxamide], which class is on record?
**A.** 1 (Class 1: The value of percent of control at 10^−7 M was less than 40% or the value of IC50 was less than 50 nM.)

**Q.** How did the class turn out when Cc1nc(N[C@H]2CC[C@@H](NC(=O)c3scc(S(=O)(=O)c4ccc(Cl)cc4)c3C)CC2)cc(N(C)C)n1 [compound 216] was run?
**A.** 3 (Class 3: The value of percent of control at 10^−7 M was more than 60% or the value of IC50 was more than 200 nM.)

**Q.** Which class does the source give for Cc1nc(N[C@H]2CC[C@@H](NC(=O)c3ccc(N(C)C)cc3)CC2)cc(N(C)C)n1 [compound 217] here?
**A.** 3 (Class 3: The value of percent of control at 10^−7 M was more than 60% or the value of IC50 was more than 200 nM.)

**Q.** With Cc1nc(N[C@H]2CC[C@@H](NC(=O)c3ccc(F)c(F)c3)CC2)cc(N(C)C)n1 [compound 218, N-(cis-4-{[6-(dimethylamino)-2-methylpyrimidin-4-yl]amino}cyclohexyl)-3,4-difluorobenzamide] as the compound, how does the class read?
**A.** 1 (Class 1: The value of percent of control at 10^−7 M was less than 40% or the value of IC50 was less than 50 nM.)

**Q.** With COc1ccc(C(=O)N[C@H]2CC[C@@H](Nc3cc(N(C)C)nc(C)n3)CC2)cc1OC [compound 219] as the compound, how does the class read?
**A.** 3 (Class 3: The value of percent of control at 10^−7 M was more than 60% or the value of IC50 was more than 200 nM.)

**Q.** CCOc1ccc(C(=O)N[C@H]2CC[C@@H](Nc3cc(N(C)C)nc(C)n3)CC2)cc1 [compound 220] was tested. Which class did it give?
**A.** 3 (Class 3: The value of percent of control at 10^−7 M was more than 60% or the value of IC50 was more than 200 nM.)

**Q.** Cc1nc(N[C@H]2CC[C@@H](NC(=O)c3ccc(F)cc3)CC2)cc(N(C)C)n1 [compound 221, N-(cis-4-{[6-(dimethylamino)-2-methylpyrimidin-4-yl]amino}cyclohexyl)-4-fluorobenzamide] was tested. Which class did it give?
**A.** 3 (Class 3: The value of percent of control at 10^−7 M was more than 60% or the value of IC50 was more than 200 nM.)

**Q.** For Cc1nc(N[C@H]2CC[C@@H](NC(=O)c3ccco3)CC2)cc(N(C)C)n1 [compound 222], which class is on record?
**A.** 3 (Class 3: The value of percent of control at 10^−7 M was more than 60% or the value of IC50 was more than 200 nM.)

**Q.** How did the class turn out when Cc1nc(N[C@H]2CC[C@@H](NC(=O)c3ccno3)CC2)cc(N(C)C)n1 [compound 223] was run?
**A.** 3 (Class 3: The value of percent of control at 10^−7 M was more than 60% or the value of IC50 was more than 200 nM.)

**Q.** Cc1nc(N[C@H]2CC[C@@H](NC(=O)c3ccccc3I)CC2)cc(N(C)C)n1 [compound 224] was tested. Which class did it give?
**A.** 3 (Class 3: The value of percent of control at 10^−7 M was more than 60% or the value of IC50 was more than 200 nM.)

**Q.** With Cc1nc(N[C@H]2CC[C@@H](NC(=O)N3CCOCC3)CC2)cc(N(C)C)n1 [compound 225] as the compound, how does the class read?
**A.** 3 (Class 3: The value of percent of control at 10^−7 M was more than 60% or the value of IC50 was more than 200 nM.)

**Q.** How did the class turn out when CSc1ncccc1C(=O)N[C@H]1CC[C@@H](Nc2cc(N(C)C)nc(C)n2)CC1 [compound 226] was run?
**A.** 3 (Class 3: The value of percent of control at 10^−7 M was more than 60% or the value of IC50 was more than 200 nM.)

**Q.** COC(=O)c1ccc(C(=O)N[C@H]2CC[C@@H](Nc3cc(N(C)C)nc(C)n3)CC2)cc1 [compound 227] was tested. Which class did it give?
**A.** 3 (Class 3: The value of percent of control at 10^−7 M was more than 60% or the value of IC50 was more than 200 nM.)

**Q.** For Cc1nc(N[C@H]2CC[C@@H](NC(=O)c3nn(-c4ccccc4)nc3C)CC2)cc(N(C)C)n1 [compound 228], which class is on record?
**A.** 3 (Class 3: The value of percent of control at 10^−7 M was more than 60% or the value of IC50 was more than 200 nM.)

**Q.** Cc1nc(N[C@H]2CC[C@@H](NC(=O)c3snnc3C)CC2)cc(N(C)C)n1 [compound 229] was tested. Which class did it give?
**A.** 3 (Class 3: The value of percent of control at 10^−7 M was more than 60% or the value of IC50 was more than 200 nM.)

**Q.** COc1ccc(Oc2ccc([N+](=O)[O-])cc2C(=O)N[C@H]2CC[C@@H](Nc3cc(N(C)C)nc(C)n3)CC2)cc1 [compound 230, N-(cis-4-{[6-(dimethylamino)-2-methylpyrimidin-4-yl]amino}cyclohexyl)-2-(4-methoxyphenoxy)-5-nitrobenzamide] was tested. Which class did it give?
**A.** 2 (Class 2: The value of percent of control at 10^−7 M was from 40% to 60% or the value of IC50 was from 50 nM to 200 nM.)

**Q.** Cc1nc(N[C@H]2CC[C@@H](NC(=O)c3ccc4ccccc4c3)CC2)cc(N(C)C)n1 [compound 231] was tested. Which class did it give?
**A.** 3 (Class 3: The value of percent of control at 10^−7 M was more than 60% or the value of IC50 was more than 200 nM.)

**Q.** Cc1nc(N[C@H]2CC[C@@H](NC(=O)c3cccc([N+](=O)[O-])c3)CC2)cc(N(C)C)n1 [compound 232, N-(cis-4-{[6-(dimethylamino)-2-methylpyrimidin-4-yl]amino}cyclohexyl)-3-nitrobenzamide] was tested. Which class did it give?
**A.** 3 (Class 3: The value of percent of control at 10^−7 M was more than 60% or the value of IC50 was more than 200 nM.)

**Q.** For Cc1nc(N[C@H]2CC[C@@H](NC(=O)c3cnn(-c4ccc([N+](=O)[O-])cc4)c3C(F)(F)F)CC2)cc(N(C)C)n1 [compound 233], which class is on record?
**A.** 3 (Class 3: The value of percent of control at 10^−7 M was more than 60% or the value of IC50 was more than 200 nM.)

**Q.** Cc1nc(N[C@H]2CC[C@@H](NC(=O)COc3ccccc3)CC2)cc(N(C)C)n1 [compound 234] was tested. Which class did it give?
**A.** 3 (Class 3: The value of percent of control at 10^−7 M was more than 60% or the value of IC50 was more than 200 nM.)

**Q.** Which class does the source give for Cc1nc(N[C@H]2CC[C@@H](NC(=O)Cc3ccccc3)CC2)cc(N(C)C)n1 [compound 235] here?
**A.** 3 (Class 3: The value of percent of control at 10^−7 M was more than 60% or the value of IC50 was more than 200 nM.)

**Q.** Cc1nc(N[C@H]2CC[C@@H](NC(=O)C3C[C@H]3c3ccccc3)CC2)cc(N(C)C)n1 (stereo partly shown) [compound 236] was tested. Which class did it give?
**A.** 3 (Class 3: The value of percent of control at 10^−7 M was more than 60% or the value of IC50 was more than 200 nM.)

**Q.** For Cc1nc(N[C@H]2CC[C@@H](NC(=O)c3ccc4c(c3)OCO4)CC2)cc(N(C)C)n1 [compound 237], which class is on record?
**A.** 3 (Class 3: The value of percent of control at 10^−7 M was more than 60% or the value of IC50 was more than 200 nM.)

Source: patent US20090036448A1, “PYRIMIDINE DERIVATIVES AND METHODS OF TREATMENT RELATED TO THE USE THEREOF” (TAISHO PHARMECUTICAL CO., LTD., priority 2004, published 2009)
